Assay results published in patent publication US20070078263A1, “BIARYL SUBSTITUTED HETEROCYCLE INHIBITORS OF LTA4H FOR TREATING INFLAMMATION” (deCODE Chemistry, Inc., priority 2005, published 2007).
Structures can show the parent of a compound that is named as a salt.

biological target: T1, human LTA4 hydrolase (Homo sapiens, UniProt P09960); experiment: In vitro assay testing inhibitory activity against purified recombinant human LTA4 hydrolase (LTB4 formed, LC-MS/MS); assay type: biochemical; settings: not given;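 further: 200 nM enzyme preincubated 10 min at room temperature with serial inhibitor dilutions in pH 8.0 Tris buffer with BSA and 10% DMSO, then 2 µM LTA4 added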
T1 construct: A human LTA4 hydrolase full-length cDNA clone (NM 000895) was purchased; His tag (6xHis of vector pDEST17); made in house; host or cells: Escherichia coli BL21-AI
T1 sequence (P09960 1-611): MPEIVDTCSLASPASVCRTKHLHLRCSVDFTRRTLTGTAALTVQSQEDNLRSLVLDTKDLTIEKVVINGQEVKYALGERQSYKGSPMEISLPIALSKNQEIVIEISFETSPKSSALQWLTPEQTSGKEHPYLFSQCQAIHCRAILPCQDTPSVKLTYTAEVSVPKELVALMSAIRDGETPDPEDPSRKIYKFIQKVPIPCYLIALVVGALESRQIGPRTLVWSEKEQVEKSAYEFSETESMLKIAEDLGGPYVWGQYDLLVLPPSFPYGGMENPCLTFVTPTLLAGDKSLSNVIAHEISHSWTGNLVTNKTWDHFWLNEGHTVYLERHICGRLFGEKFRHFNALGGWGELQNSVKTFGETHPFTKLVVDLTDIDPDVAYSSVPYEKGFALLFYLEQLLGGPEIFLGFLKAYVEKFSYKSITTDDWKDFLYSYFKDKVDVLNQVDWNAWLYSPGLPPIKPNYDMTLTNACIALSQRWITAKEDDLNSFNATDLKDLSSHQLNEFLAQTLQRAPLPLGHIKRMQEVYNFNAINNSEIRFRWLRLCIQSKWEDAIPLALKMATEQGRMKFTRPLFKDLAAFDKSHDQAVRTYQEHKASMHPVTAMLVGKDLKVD

`c1ccc(Cc2ccc(COC[C@H]3CCCN3)cc2)cc1` [Example 156, hydrochloride salt] was tested. Which IC50 did it give?
Its IC50 is under 5 µM.

With `O=C(O)CCCN1CCCC[C@@H]1COc1ccc(Oc2ccc(Cl)cc2)cc1` [Example 81, 4-{(R)-2-[4-(4-Chloro-phenoxy)-phenoxymethyl]-piperidin-1-yl}-butyric acid hydrochloride] as the compound, how does the IC50 read?
The IC50 was under 5 µM.

same assay, conditions: recombinant human LTA4 hydrolase 200 nM, LTA4 2 μM; read-out: AvgIC50

With `Cc1ccc(Oc2ccc(OC[C@H]3CCCN3)cc2)cc1` [Example 14, (R)-2-(4-p-Tolyloxy-phenoxymethyl)-pyrrolidine hydrochloride] as the compound, how does the IC50 read?
The IC50 was under 5 µM.

For `C[C@@H](NC(=O)CCCN1CCC[C@H]1COc1ccc(Oc2ccc(Cl)cc2)cc1)c1ccccc1` [Example 139, 4-{(S)-2-[4-(4-Chloro-phenoxy)-phenoxymethyl]-pyrrolidin-1-yl}-N—[(R)-1-phenylethyl]-butyramide], which IC50 is on record?
Its IC50 is under 5 µM.

How did the IC50 turn out when `O=C(O)CCCN1CCC[C@H]1COc1ccc(Cc2ccc(-c3ccccc3)s2)cc1` [Example 162, 4-{(S)-2-[4-(5-Phenyl-thiophen-2-ylmethyl)-phenoxymethyl]-pyrrolidin-1-yl}-butyric acid] was run?
The IC50 was under 5 µM.

`Cc1noc(CCCN2CCC[C@H]2COc2ccc(Cc3ccccc3)cc2)n1` [Example 32] was tested. Which IC50 did it give?
The IC50 was under 5 µM.

How did the IC50 turn out when `c1ccc(Cc2ccc(-c3ccc(OC[C@H]4CCCN4)cc3)s2)cc1` [Example 170, (R)-2-[4-(5-Benzyl-thiophen-2-yl)-phenoxymethyl]-pyrrolidine] was run?
Its IC50 is under 5 µM.

Which IC50 does the source give for `O=C(O)CCCN1CCC[C@@H]1COc1ccc(Cc2ccc(Cl)cc2)cc1` [Example 65, 4-{(R)-2-[4-(4-Chloro-benzyl)-phenoxymethyl]-pyrrolidin-1-yl}-butyric acid] here?
The IC50 was under 5 µM.

For `c1ccc(Oc2ccc(SC[C@H]3CCCN3)cc2)cc1` [Example 43, (R)-2-(4-Phenoxy-phenylsulfanylmethyl)-pyrrolidine], which IC50 is on record?
Its IC50 is under 5 µM.

Which IC50 does the source give for `O=C(O)CCN1CCC[C@@H]1COc1ccc(Oc2ccccn2)cc1` [Example 168, 3-{2-[4-(Pyridin-2-yloxy)-phenoxymethyl]-pyrrolidin-1-yl}-propionic acid] here?
Its IC50 is under 5 µM.

With `O=C(O)CCCN1CCC[C@@H]1COc1ccc(-c2ccc(Cc3ccccc3)s2)cc1` [Example 171, 4-{(R)-2-[4-(5-Benzyl-thiophen-2-yl)-phenoxymethyl]-pyrrolidin-1-yl}-butyric acid] as the compound, how does the IC50 read?
Its IC50 is under 5 µM.

For `Clc1cc2c(cc1COc1ccc(OC[C@H]3CCCN3)cc1)OCO2` [Example 98, (R)-2-[4-(6-Chloro-benzo[1,3]dioxol-5-ylmethoxy)phenoxymethyl]pyrrolidine Hydrogen chloride salt], which IC50 is on record?
Its IC50 is 20 to 100 µM.

With `O=C(c1ccc(I)cc1)c1ccc(OC[C@H]2CCCN2)cc1` [Example 127, (4-Iodo-phenyl)-[4-((R)-1-pyrrolidin-2-ylmethoxy)-phenyl]-methanone] as the compound, how does the IC50 read?
Its IC50 is 5 to 20 µM.

Which IC50 does the source give for `c1ccc(Cc2ccc(OC[C@H]3CCCN3)nc2)cc1` [Example 141, 5-Benzyl-2-((R)-1-pyrrolidin-2-ylmethoxy)-pyridinehydrochloride salt] here?
The IC50 was under 5 µM.

For `N#CC1(c2ccc(Oc3ccc(OC[C@H]4CCCN4)cc3)cc2)CC1` [Example 136, 1-{4-[4-((R)-1-Pyrrolidin-2-ylmethoxy)-phenoxy]-phenyl}-cyclopropanecarbonitrile hydrogen chloride salt], which IC50 is on record?
Its IC50 is under 5 µM.

For `O=C(c1ccccc1)c1ccc(OC[C@H]2CCCN2)cc1` [Example 46, Phenyl-[4-((R)-1-pyrrolidin-2-ylmethoxy)-phenyl]-methanone], which IC50 is on record?
The IC50 was 5 to 20 µM.

With `Clc1ccc(COc2ccc(OC[C@H]3CCCN3)cc2)c(Cl)c1` [Example 91, (R)-2-[4-(2,4-Dichloro-benzyloxy)-phenoxymethyl]-pyrrolidine hydrogen chloride salt] as the compound, how does the IC50 read?
The IC50 was 5 to 20 µM.

For `O=C(O)CCCN1CCC[C@H]1COc1ccc(Cc2ccc(-c3cccs3)cc2)cc1` [Example 118], which IC50 is on record?
Its IC50 is under 5 µM.

For `c1cc(OC[C@@H]2CCCN2)ccc1Cc1ccc(N2CCC2)cc1` [Example 124, (S)-2-[4-(4-Azetidin-1-yl-benzyl)-phenoxymethyl]-pyrrolidine hydrogen chloride salt], which IC50 is on record?
The IC50 was 5 to 20 µM.

`c1cc(-c2ccc(Cc3ccc(OC[C@H]4CCCCN4)cc3)cc2)cs1` [Example 78, (R)-2-[4-(4-Thiophen-3-yl-benzyl)-phenoxymethyl]-piperidine hydrochloride] was tested. Which IC50 did it give?
The IC50 was under 5 µM.

With `O=C(O)CCN1CCC[C@H]1COc1ccc(Oc2ccc(C(F)(F)F)cc2)cc1` [Example 26, (S)-2-[4-(4-trifluoromethyl-phenoxy)-phenoxymethyl]-pyrrolidine-1-yl}propionic acid sodium salt] as the compound, how does the IC50 read?
The IC50 was under 5 µM.

With `c1ccc(Cc2ccc(OCCC3CCCCN3)cc2)cc1` (racemic) [Example 72, (+/−)-2-[(4-Benzylphenoxy)ethyl]-piperidine hydrochloride] as the compound, how does the IC50 read?
The IC50 was under 5 µM.

How did the IC50 turn out when `c1ccc(Cc2ccc(NC[C@H]3CCCN3)cc2)cc1` [Example 41, (4-Benzyl-phenyl)-(R)-1-pyrrolidin-2-ylmethyl-anine] was run?
The IC50 was under 5 µM.

With `c1ncn(-c2ccc(Oc3ccc(OC[C@H]4CCCN4)cc3)cc2)n1` [Example 153, 1-{4-[4-((R)-1-Pyrrolidin-2-ylmethoxy)-phenoxy]-phenyl}-1H-[1,2,4]triazole hydrochloride salt] as the compound, how does the IC50 read?
Its IC50 is under 5 µM.

Which IC50 does the source give for `O=C(O)CCCN1CCC[C@H]1COc1ccc(Cc2ccc(-c3nccs3)cc2)cc1` [Example 151, 4-{(S)-2-[4-(4-Thiazol-2-yl-benzyl)-phenoxymethyl]-pyrrolidin-1-yl}-butylic acid hydrochloride salt] here?
The IC50 was under 5 µM.

`O=C(O)CN1CCCC[C@H]1COc1ccc(Oc2ccc(Cl)cc2)cc1` [Example 62, {(S)-2-[4-(4-Chloro-phenoxy)-phenoxymethyl]-piperidin-1-yl}-acetic acid hydrochloride] was tested. Which IC50 did it give?
Its IC50 is under 5 µM.

For `c1ccc2oc(Oc3ccc(OC[C@H]4CCCN4)cc3)nc2c1` [Example 99, (R)-2-[4-(Benzooxazol-2-yloxy)-phenoxymethyl]-pyrrolidine Hydrogen chloride salt], which IC50 is on record?
Its IC50 is under 5 µM.

`Cc1ccc(-c2ccc(Cc3ccc(OC[C@H]4CCCN4CCCC(=O)O)cc3)cc2)s1` [Example 115, (R)-2-{4-[4-(5-methyl-thiophen-2-yl)-benzyl]-phenoxymethyl}-pyrrolidin-1-yl}-butyric acid hydrogen chloride salt] was tested. Which IC50 did it give?
Its IC50 is under 5 µM.

With `c1ncc(-c2ccc(Oc3ccc(OC[C@@H]4CCCN4)cc3)cc2)o1` [Example 89, 5-{4-[4-((S)-1-Pyrrolidin-2-ylmethoxy)-phenoxy]-phenyl}-oxazole] as the compound, how does the IC50 read?
The IC50 was under 5 µM.

For `FC(F)(F)Oc1ccc(Oc2ccc(OC[C@H]3CCCN3)cc2)cc1` [Example 11, (R)-2-[4-(4-Trifluoromethoxy-phenoxy)-phenoxymethyl]-pyrrolidine hydrochloride], which IC50 is on record?
The IC50 was under 5 µM.

How did the IC50 turn out when `O=C(Cc1ccccc1)c1ccc(OC[C@H]2CCCN2)cc1` [Example 47, 2-Phenyl-1-[4-((R)-1-pyrrolidin-2-ylmethoxy)-phenyl]-ethanone] was run?
The IC50 was 5 to 20 µM.

`FC(F)(F)c1ccc(Oc2ccc(OC[C@@H]3CCCN3)cc2)cc1` [Example 24, (S)-2-[4-(4-trifluoromethyl-phenoxy)-phenoxymethyl]-pyrrolidine] was tested. Which IC50 did it give?
Its IC50 is under 5 µM.

With `Clc1ccc2nc(Oc3ccc(OC[C@H]4CCCN4)cc3)sc2c1` [Example 101, (R)-2-[4-(6-Chloro-benzothiazol-2-yloxy)-phenoxymethyl]-pyrrolidine-Hydrogen chloride salt] as the compound, how does the IC50 read?
Its IC50 is under 5 µM.

How did the IC50 turn out when `c1ccc(-c2ccc(Oc3ccc(OC[C@H]4CCCN4)cc3)cc2)cc1` [Example 12, (R)-2-[4-(Biphenyl-4-yloxy)-phenoxymethyl]-pyrrolidine hydrochloride] was run?
Its IC50 is under 5 µM.

Which IC50 does the source give for `O=C(O)CCCN1CCC[C@H]1COc1ccc(Oc2ccc(C(F)(F)F)cc2)cc1` [Example 25] here?
The IC50 was under 5 µM.

How did the IC50 turn out when `c1ccc(CO[C@H]2CN[C@H](COc3ccc(Oc4ccccc4)cc3)C2)cc1` [Example 85] was run?
Its IC50 is 5 to 20 µM.

With `Cc1noc(CCCN2CCC[C@@H]2COc2ccc(Cc3ccccc3)cc2)n1` [Example 31] as the compound, how does the IC50 read?
Its IC50 is under 5 µM.

`c1ccc(-c2ccc(Cc3ccc(OC[C@H]4CCCN4)cc3)o2)cc1` [Example 163, (R)-2-[4-(5-Phenyl-furan-2-ylmethyl)-phenoxymethyl]-pyrrolidine] was tested. Which IC50 did it give?
The IC50 was under 5 µM.

tested on: human whole blood; experiment: Ex vivo assay testing inhibitory activity in human whole blood after stimulation with calcium ionophore (LTB4 ELISA); assay type: cell-based; settings: Ionomycin 20 μM, read-out: hWBIC50;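 further: heparinized human blood preincubated 15 min at 37 °C with compound, then ionomycin-stimulated for 30 min, LTB4 in plasma supernatant quantified by ELISA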
Procedure: (2) Ex vivo assay testing inhibitory activity in human whole blood after stimulation with calcium ionophor.
Human blood was collected in heparin-containing Vacutainer tubes. […] Then 4 μl of a series of compound dilutions (in DMSO) were added, followed by a 15 min incubation at 37° C. with gentle shaking. After that, blood samples were stimulated by adding Ionomycin (Calbiochem) to a final concentration of 20 μM. After another incubation at 37° C. for 30 min, samples were centrifuged for 5 min at 1800 g and 4° C. Supernatants were taken and LTB4 concentrations were determined using a commercially available enzyme-linked immunosobentassay (R&D Systems, Minneapolis, Minn.) according to the manufacturer's instructions.

How did the IC50 turn out when `O=C(O)CCCN1CCC[C@@H]1COc1ccc(Oc2ccc(Cl)cc2)cc1` [Example 20, 4-{(R)-2-[4-(4-Chloro-phenoxy)-phenoxymethyl]-pyrrolidin-1-yl}-butyric acid hydrochloride] was run?
The IC50 was under 5 µM.

Which IC50 does the source give for `NC(=O)NCCCN1CCC[C@H]1COc1ccc(Oc2ccc(Cl)cc2)cc1` [Example 40, (3-{(S)-2-[4-(4-Chloro-phenoxy)-phenoxymethyl]-pyrrolidin-1-yl}-propyl)-urea] here?
The IC50 was under 5 µM.

Which IC50 does the source give for “(S)-2-[4-(2-thiophen-benzyl)-phenoxymethyl]-pyrrolidine hydrogen chloride salt [Example 117]” here?
Its IC50 is under 5 µM.

Which IC50 does the source give for `O=C(CCCN1CCC[C@H]1COc1ccc(Oc2ccc(Cl)cc2)cc1)NO` [Example 27, hydrochloride] here?
The IC50 was under 5 µM.

How did the IC50 turn out when `O=C(O)CCCN1CCC[C@@H]1COc1ccc(Oc2ccc(-c3nccs3)cc2)cc1` [Example 147, 4-{(R)-2-[4-(4-Thiazol-2-yl-phenoxy)-phenoxymethyl]-pyrrolidin-1-yl}-butyric acid] was run?
The IC50 was under 5 µM.
